In patent US11945807B2, “Splicing modulator antibody-drug conjugates and methods of use” (EISAI R&D MANAGEMENT CO., LTD., priority 2018, dated 2024):

Assays:
[1] = Caco-2 permeability of ADC payload; type: in vitro ADME; conditions: human, corresponding free payload
Experimental: Integrity of cell monolayer was confirmed by TEER (transepithelial electrical resistance) and Lucifer yellow. Payloads were spiked in duplicate at 10 NM, separately, on both sides of the cell monolayer. Permeability rates from the apical to basolateral (A-B) direction and the basolateral to apical (B-A) direction were determined by sampling aliquots from both chambers immediately after treatment (t=0) and following incubation for 2 hours. Samples were protein precipitated with organic solvent containing internal standard and analyzed by LC-MS/MS (SCIEX; API 5500). The area ratio responses of payload/internal standard over time in both directions were used to generate permeability (cm/sec) values.

[2] = system: NCIH1650.1; assay: Payload cellular potency CTGlo-ATS 72 h, NCIH1650.1; type: cell-based; conditions: cell line #1, 72 h, corresponding free payload
[3] = system: THP1.1; assay: Payload cell potency and lethality CTGlo 72 h, THP1.1; type: cell-based; conditions: cell line #3, 72 h, corresponding free payload
[4] = system: NCIH1568.1; assay: Payload cellular potency CTGlo-ATS 72 h, NCIH1568.1; type: cell-based; conditions: cell line #2, 72 h, corresponding free payload
[5] = system: Ad2.2 pre-mRNA; assay: In vitro splicing (IVS) RT-qPCR, HeLa nuclear extract, Ad2.2; type: biochemical; conditions: biochemical splicing assay; corresponding free payload; read-out: qPCR-IVS-ATS GMean IC50 (nM) Ad2.2 HELA.2
Experimental: (§1) To evaluate payload activity in a cell-free system, an in vitro splicing assay was performed. The payloads were incubated with nuclear extracts and pre-mRNA substrate minigenes.
(§2) HeLa nuclear extract preparation: HeLa S3 cell pellets were resuspended in hypotonic buffer (10 mM HEPES pH 7.9, 1.5 mM MgCl2, 10 mM KCl, 0.2 mM PMSF, 0.5 mM DTT) and the suspension was brought up to a total of 5 packed cell volume (PCV). After centrifugation, the supernatant was discarded, and the cells were brought up to 3 PCV with hypotonic buffer and incubated on ice for 10 min. Cells were lysed using a dounce homogenizer and then centrifuged. […]. The nuclei were gently mixed for 30 min before centrifuging. The supernatant (nuclear extract) was then dialyzed into storage buffer (20 mM HEPES pH 7.9, 100 mM KCl, 0.2 mM EDTA, 20% glycerol, 0.2 mM PMSF, 0.5 mM DTT). Protein concentration was determined using NanoDrop 8000 UV-Vis spectrophotometer (ThermoFisher Scientific).
IVS: All Ad2-derived sequences (Pellizzoni et al. (1998) Cell 95(5):615-24) were cloned into pcDNA3.1(+) vector (Promega) using 5′ EcoRI and 3′ Xbal restriction sites. The plasmids were linearized using Xbal and used as DNA templates in in vitro transcription reactions. The FtzΔi intron-less plasmid (Luo and Reed (1999) 96(26):14937-42) was linearized using EcoRI. All RNAs were in vitro transcribed and then purified using MEGAScript T7 (Invitrogen) and MegaClear (Invitrogen) kits, respectively. For splicing reactions using Ad2 variant pre-mRNAs, 1 μL reactions were prepared using 8 μg nuclear extracts prepared from HeLa S3, 2 ng pre-mRNA, 0.2 ng FTZΔi, and varying concentrations of compounds or DMSO. After a 15 min pre-incubation at 30° C., 1 μL splicing activation buffer (0.5 mM ATP, 20 mM creatine phosphate, 1.6 mM MgCl2) was added, and the reactions were incubated for 90 min at 30° C. The reactions were then quenched with 13 μL DMSO, and 25 nL was used for RT-qPCR. RT-qPCR reactions were prepared using TaqMan RNA-to-CT 1-step kit (Life Technologies), RNA from splicing reactions, Ad2 (forward: […]; reverse: […]; probe: […]) and Ftz (forward: […]; reverse: […]; probe: […]) mRNA primer-probe sets. Prism 7 (Graphpad) was used for non-linear regression curve fitting of the formed spliced product and normalized to the control (DMSO) sample. […] In the presence of payload, a decrease in the amount of spliced product was observed.

[6] = system: Ad2.1 pre-mRNA; assay: In vitro splicing (IVS) RT-qPCR, HeLa nuclear extract, Ad2.1; type: biochemical; conditions: corresponding free payload
Experimental: as §1, §2
IVS: All Ad2-derived sequences (Pellizzoni et al. (1998) Cell 95(5):615-24) were cloned into pcDNA3.1(+) vector (Promega) using 5′ EcoRI and 3′ Xbal restriction sites. The plasmids were linearized using Xbal and used as DNA templates in in vitro transcription reactions. The FtzΔi intron-less plasmid (Luo and Reed (1999) 96(26):14937-42) was linearized using EcoRI. All RNAs were in vitro transcribed and then purified using MEGAScript T7 (Invitrogen) and MegaClear (Invitrogen) kits, respectively. For splicing reactions using Ad2 variant pre-mRNAs, 1 μL reactions were prepared using 8 μg nuclear extracts prepared from HeLa S3, 2 ng pre-mRNA, 0.2 ng FTZΔi, and varying concentrations of compounds or DMSO. After a 15 min pre-incubation at 30° C., 1 μL splicing activation buffer (0.5 mM ATP, 20 mM creatine phosphate, 1.6 mM MgCl2) was added, and the reactions were incubated for 90 min at 30° C. The reactions were then quenched with 13 μL DMSO, and 25 nL was used for RT-qPCR. […]

In the case of `CC[C@H](O)[C@@H](C)[C@H]1O[C@@H]1C[C@@](C)(O)/C=C/C=C(\C)[C@H]1OC(=O)C[C@H](O)CC[C@@](C)(O)[C@@H](OC(=O)N2CCNCC2)/C=C/[C@@H]1C` [D12, (2S,3S,6S,7R,10R,E)-7,10-dihydroxy-2-((R,2E,4E)-6-hydroxy-7-((2R,3R)-3-((2R,3S)-3-hydroxypentan-2-yl)oxiran-2-yl)-6-methylhepta-2,4-dien-2-yl)-3,7-dimethyl-12-oxooxacyclododec-4-en-6-yl piperazine-1-carboxylate], the Papp A→B at 2 h, 10 NM ([1]; Caco-2, A-B, read-out: Perm. Mean Caco 2 A-B Perm (10e−6 cm/s)) is reported as 0.17 ×10⁻⁶ cm/s, the Papp B→A at 2 h, 10 NM ([1]; Caco-2, B-A, read-out: Perm. Mean Caco 2 B-A Perm (10e−6 cm/s)) is reported as 0.23 ×10⁻⁶ cm/s and the efflux ratio at 2 h, 10 NM ([1]; Caco-2 efflux ratio, read-out: ER) is reported as 1.35. For the same molecule, the “CTGlo-ATS GMean LD50 (nM) 72 h NCIH1650.1” value [2] was over 10000.00 nM, the GI50 ([2]; read-out: CTGlo-ATS GMean GI50 (nM) 72 h NCIH1650.1) was 258 nM and the “CTGlo-ATS GMean LD50 (nM) 72 h THP1.1” value [3] was 900.227 nM. For the same molecule, the GI50 ([3]; read-out: CTGlo-ATS GMean GI50 (nM) 72 h THP1.1) was 202 nM, the “CTGlo-ATS GMean LD50 (nM) 72 h NCIH1568.1” value [4] was 1193.037 nM and the GI50 ([4]; read-out: CTGlo-ATS GMean GI50 (nM) 72 h NCIH1568.1) was 164 nM. The IC50 [5] was 25.1 nM, the IC50 ([6]; biochemical splicing assay, read-out: qPCR-IVS-ATS GMean IC50 (nM) Ad2.1 HELA.2) was 16.5 nM and the “Ratio Ad2.1/2.2” value ([6]; ratio of IVS IC50 Ad2.1/Ad2.2) was 0.659.
